According to article PMC12030253, “New Temporin A Analogues Modified in Positions 1 and 10—Synthesis and Biological Studies” (Pharmaceutics, 2025):
≈ marks a conversion by molar mass, not a printed value. Where “and” joins values, the source holds several entries; their conditions need not be identical. Identical values can stand only once. Like-named read-outs stand apart in the source and are kept apart here. Square brackets hold non-standard residues; d marks the D form. Ends that are not written are not given here. Peptide text beside a SMILES is read from it. Phe(4-F) = N[C@@H](Cc1ccc(F)cc1)C(=O)O

What was measured:
[1] = test system: Bacillus subtilis NBIMCC 3562; type: cell-based; conditions: 30 µg/disk, positive control on the plate of the peptide
Experimental: (§1) In order to evaluate the antimicrobial activity, the parent peptide Temporin A and newly synthesized analogues were tested against model strains Escherichia coli NBIMCC 8785, Pseudomonas aeruginosa NBIMCC 3700, Bacillus subtilis NBIMCC 3562, Arthrobacter oxydans NBIMCC 9333, and Candida albicans NBIMCC 74. The strains were purchased from the National Bank for Industrial Microorganisms and Cell Cultures (NBIMCC, Sofia, Bulgaria). They were cultured as follows: • E. coli 8785 in Luria–Bertani (LB, HiMedia, Mumbai, India) agar medium; • B. subtilis 3562 in nutrient broth (NB, HiMedia, Mumbai, India) agar medium; • P. aeruginosa 3700 and A. oxydans 9333 in Meat Peptone agar (MPA) medium; • C. albicans 74 in Yeast Mold (YM) agar medium.
(§2) The cultivation was performed in an incubator shaker ES-20/60 (Biosan, Riga, Latvia), set for B. subtilis 3562, A. oxydans 9333, and C. albicans 74 at 30 °C, and for E. coli 8785 and P. aeruginosa 3700 at 37 °C, for 24 h with 120 rpm. The microbial cultures were then brought to a 0.5 McFarland turbidity using a Grant-bio DEN-1B densitometer (Grant Instruments, Nether Alderley, United Kingdom).
(§3) The disk diffusion method was employed as an additional technique in order to determine the percentage of inhibition of the synthesized peptides compared to a chosen antibiotic, used as a positive control. The antibiotics used were gentamicin (10 µg/disk), chloramphenicol (30 µg/disk), and itraconazole (10 µg/disk). In total, 100 μL from each microbial culture was spread on LB/NB/MPA/YM agar plates. The plates were then incubated at the appropriate temperature for a period of 30 min intended for the penetration of the culture into the agar. […] The antimicrobial activity was assessed by measuring the diameter of the inhibition zones in mm. […] In addition, the percentage of inhibition was calculated as the correlation between the inhibition zone of the peptide (measured in mm) over the inhibition zone of the antibiotic (measured in mm) multiplied by 100.

[2] = test system: Bacillus subtilis NBIMCC 3562; set-up: method as in PMID 38931840; conditions: 30 µg/disk, positive control with DTA; cited from earlier work
MCF-7 cells = type: cell-based, human; conditions: 72 h
Experimental: (§4) Mouse embryonic fibroblasts (BALB 3T3 clone A31), human breast epithelial cells (MCF-12F), luminal A breast cancer (MCF-7), and basal B-type breast cancer (MDA-MB-231) were used in in vitro experiments. Cell cultures were purchased from the American Type Cultures Collection (ATCC, Manassas, VA, USA). Cells were cultured in a growth medium (DMEM-4.5 g/L glucose), 10% FBS, and antibiotics (Sigma-Aldrich, Schnelldorf, Germany). Cells were incubated at 5% CO2, 37 °C, and 95% humidity. Plastic flasks (75 cm^2) were used for the cell culture (Biologix, Lenexa, KS, USA).
(§5) The antiproliferative activity of the peptide analogues was determined by an MTT assay. Normal epithelial cells (MCF-12F) and tumor cell lines (MCF-7 and MDA-MB-231) were used in the in vitro experiments. Cells were plated at 1 × 10^3 cells/100 µL/well in 96-well microplates. […] The optical density of the formazan was measured at λ = 540 nm using a microplate reader. Antiproliferative activities were expressed as IC50 values. The statistical analysis of the results was performed using one-way ANOVA, followed by Bonferroni’s post hoc test.

MDA-MB-231 cells = type: cell-based, human; conditions: 72 h
Experimental: as §4, §5

[3] = test system: Arthrobacter oxydans NBIMCC 9333; type: cell-based; conditions: 24 h
Experimental: as §1, §2
(§6) The broth dilution method was employed to estimate the MIC of the peptides. In total, 10 mg/mL peptide stock solutions in 10% EtOH/H2O were prepared. Microbial culture in the corresponding media and peptide solutions in a concentration range from 0 to 320 µg/mL (concentration levels: 0, 10, 20, 40, 80, 160, and 320 µg/mL) were placed in 96-well U-shaped-bottom polystyrene plates (Deltalab S.L., Barcelona, Spain). In addition, 10% EtOH/H2O control, diluted in the nutrient medium, was added in separate wells. Furthermore, the microplates were incubated under aerobic conditions at the desired temperature for 24 h. […] The absorbance was measured at 630 nm (microplate reader PKL PPC 142, Italy). In total, 10 μL solution with concentrations greater than or equal to the MIC value was placed on the corresponding solid nutrient medium in order to evaluate a potential minimum bactericidal concentration (MBC) and minimal fungicidal concentration (MFC). Furthermore, the Petri dishes were incubated for 24 h at either 30 or 37 °C. Every experiment was carried out three times.

[4] = test system: Pseudomonas aeruginosa NBIMCC 3700; type: cell-based
Experimental: as §1, §2, §6

[5] = test system: Bacillus subtilis NBIMCC 3562; type: cell-based
Experimental: as §1, §2, §6

BALB 3T3 cells = assay: in vitro; type: cell-based, Mouse
Experimental: as §4
(§7) The safety testing was performed according to the OECD Guidelines for the Testing of Chemicals, Section 4, Test No. 432. Mouse embryonic fibroblasts (BALB 3T3, clone A31) were used to perform the in vitro cytotoxicity and phototoxicity tests. Cells were plated at 1 × 10^4 cells per well in 96-well cell culture plates. The cells were incubated in a thermostat for 24 h before the test peptide analogues were added. […] Working concentrations (4–1000 µM) of peptides were obtained by diluting the stock solution with a culture medium. The phototoxicity test was performed using 96-well microplates. The microplates were irradiated with a dose of 2.4 J/cm^2 using a solar light simulator Helios-iO (SERIC Ltd., Tokyo, Japan). After treatment with a neutral red (NR) medium (NR dissolved in culture medium, 34 µg/mL), washing, and application of the NR Desorb solution (freshly prepared 49 parts water + 50 parts ethanol + 1 part acetic acid), the absorption was measured on a microplate reader at a wavelength of 540 nm. Cytotoxicity was expressed as CC50 values.

in vitro = type: cell-based, Mouse; conditions: mouse
Experimental: as §4, §7

MCF-12F cells = type: cell-based, human; conditions: for IC50: 72 h
Experimental: as §4
The antiproliferative activity of the peptide analogues was determined by an MTT assay. Normal epithelial cells (MCF-12F) and tumor cell lines (MCF-7 and MDA-MB-231) were used in the in vitro experiments. Cells were plated at 1 × 10^3 cells/100 µL/well in 96-well microplates. After 24 h of incubation in a thermostat under standard conditions, the cells were treated with test compounds for 72 h. The optical density of the formazan was measured at λ = 540 nm using a microplate reader. Antiproliferative activities were expressed as IC50 values. The statistical analysis of the results was performed using one-way ANOVA, followed by Bonferroni’s post hoc test.

[6] = test system: Arthrobacter oxydans NBIMCC 9333; set-up: method as in PMID 38931840; conditions: 10 µg/disk, positive control with DTA; cited from earlier work
[7] = test system: Pseudomonas aeruginosa NBIMCC 3700; set-up: method as in PMID 38931840; conditions: 10 µg/disk, positive control with DTA; cited from earlier work
[8] = test system: Pseudomonas aeruginosa NBIMCC 3700; type: cell-based; conditions: 10 µg/disk, positive control on the plate of the peptide
Experimental: as §1, §2, §3

[9] = test system: Escherichia coli NBIMCC 8785; type: cell-based; conditions: 10 µg/disk, positive control on the plate of the peptide
Experimental: as §1, §2, §3

[10] = test system: Escherichia coli NBIMCC 8785; set-up: method as in PMID 38931840; conditions: 10 µg/disk, positive control with DTA; cited from earlier work
[11] = test system: Escherichia coli NBIMCC 8785; assay: Broth dilution MIC, E. coli; type: cell-based; set-up: key: NI—no inhibition observed; conditions: 0-320 µg/mL, 24 h
Experimental: as §1, §2
(§8) The broth dilution method was employed to estimate the MIC of the peptides. In total, 10 mg/mL peptide stock solutions in 10% EtOH/H2O were prepared. […] The absorbance was measured at 630 nm (microplate reader PKL PPC 142, Italy). […]

[12] = test system: Candida albicans NBIMCC 74; assay: Broth dilution MIC, C. albicans; type: cell-based; set-up: key: NI—no inhibition observed; conditions: 0-320 µg/mL, 24 h
Experimental: as §1, §2, §8

[13] = broth dilution, 0-320 µg/mL, 24 h

| Compound | IC50 (MCF-7 cells) | IC50 (MDA-MB-231 cells) | MIC A. oxydans 9333 [3] | MIC P. aeruginosa 3700 ([4]; NBIMCC 3700, 24 h) | MIC B. subtilis 3562 ([5]; NBIMCC 3562, 24 h) | PIF (Photo-Irritation Factor) (BALB 3T3 cells) | CC50 (in vitro; Mean CC50 ± SD +Irr) | CC50 (in vitro; Mean CC50 ± SD −Irr) | IC50 (MCF-12F cells) | MIC E. coli 8785 [11] | MIC C. albicans 74 [12] | further results |
| --- | --- | --- | --- | --- | --- | --- | --- | --- | --- | --- | --- | --- |
| O=C(N[C@H](CO)[C@H](O)c1ccc([N+](=O)[O-])cc1)C(Cl)Cl [Chloramphenicol, chloramphenicol] |  |  |  |  |  |  |  |  |  |  |  | Inhibition zone B. subtilis 3562, antibiotic control [1]: 24 mm and 27 mm and 28 mm; Inhibition zone B. subtilis 3562, antibiotic control [2]: 26 mm |
| CC[C@H](C)[C@H](NC(=O)CNC(=O)[C@H](CO)NC(=O)[C@H](CC(C)C)NC(=O)[C@@H](NC(=O)[C@H](CCCNC(=N)N)NC(=O)CNC(=O)[C@@H](NC(=O)[C@H](CC(C)C)NC(=O)[C@@H]1CCCN1C(=O)[C@H](CC(C)C)NC(=O)[C@@H](N)Cc1ccc(F)cc1)[C@@H](C)CC)C(C)C)C(=O)N[C@@H](CC(C)C)C(N)=O [DT4F, Phe(4F)-LPLIGRVLSGILNH2] (H-[Phe(4-F)]LPLIGRVLSGIL-NH2) | 20.3 ± 0.6 µM | 32 ± 1.43 µM | 160 µg/mL (≈ 113 µM) | 80 µg/mL (≈ 56.5 µM) | 80 µg/mL (≈ 56.5 µM) | 1.4 | 40 ± 0.78 µM | 55.4 ± 4.64 µM | 41.8 ± 1.64 µM |  |  |  |
| CNC(C)C1CCC(N)C(OC2C(N)CC(N)C(OC3OCC(C)(O)C(NC)C3O)C2O)O1 (centres unmarked) [Gentamicin, gentamicin] |  |  |  |  |  |  |  |  |  |  |  | Inhibition zone A. oxydans 9333, antibiotic control [6]: 18 mm; Inhibition zone P. aeruginosa 3700, antibiotic control [7]: 17 mm; Inhibition zone P. aeruginosa 3700, antibiotic control [8]: 17 mm and 18 mm and 16 mm; Inhibition zone E. coli 8785, antibiotic control [9]: 17.5 mm and 16.5 mm and 17 mm; Inhibition zone E. coli 8785, antibiotic control [10]: 18 mm |
| FLPLIGRVLTGIL-NH2 [DTThr, FLPLIGRVL-T-GILNH2] | 98.6 ± 1.19 µM | 136 ± 3.61 µM | 320 µg/mL | 320 µg/mL | 160 µg/mL | 1.0 | 188 ± 3.55 µM | 183 ± 2.91 µM | 165 ± 2.21 µM |  |  |  |
| FLPLIGRVLYGIL-NH2 [DTTyr10, FLPLIGRVL-Y-GILNH2] | 64.5 ± 3.93 µM | 328.5 ± 2.62 µM |  |  |  |  | > 1000 µM | > 1000 µM | 251 ± 11.8 µM | NI ** | NI ** | MIC A. oxydans 9333 ([3]; broth dilution, 0-320 µg/mL): 320 µg/mL; MIC P. aeruginosa 3700 [4, 13]: 320 µg/mL; MIC B. subtilis 3562 [5, 13]: 320 µg/mL; Antiproliferative activity in MCF-12F at a single concentration (MCF-12F cells; at 64.51 µM, non-tumorigenic cells): no antiproliferative activity was observed |
| YLPLIGRVLSGIL-NH2 [DTTyr1, Y-LPLIGRVLSGILNH2] | 216 ± 10.3 µM | 334 ± 3.72 µM | 320 µg/mL | 320 µg/mL | 160 µg/mL | 1.0 | 671 ± 12.2 µM | 669 ± 13.4 µM | 318 ± 9.79 µM | NI ** | NI ** |  |
